Data as given in ChEMBL document CHEMBL3885881, “DrugMatrix”.

Species: Rattus norvegicus
Test: DrugMatrix - Regimen: Daily Repeat
Type: toxicity, organism-based, Sprague-Dawley
Design: regimen Daily Repeat, gender Male, age 6-8 weeks
Settings: in vivo, iv, vehicle 100 % SALINE; for ABSOLUTE BASOPHIL / ABSOLUTE EOSINOPHIL / ABSOLUTE LYMPHOCYTE / ABSOLUTE MONOCYTE / ABSOLUTE SEGMENTED NEUTROPHIL / BASOPHIL / EOSINOPHIL / ERYTHROCYTE COUNT / HEMATOCRIT / HEMOGLOBIN / LYMPHOCYTE / MEAN CORPUSCULAR HEMOGLOBIN / MEAN CORPUSCULAR HEMOGLOBIN CONCENTRATION / MONOCYTE / NEUTROPHIL / NUCLEATED RED BLOOD CELLS / PLATELET COUNT: tissue Blood; for ALANINE AMINOTRANSFERASE / ALBUMIN / ALKALINE PHOSPHATASE / ASPARTATE AMINOTRANSFERASE / BLOOD UREA NITROGEN / CARBON DIOXIDE / CHLORIDE / CHOLESTEROL / CREATINE PHOSPHOKINASE / CREATININE / GLUCOSE / LIPASE / PHOSPHORUS / POTASSIUM / SODIUM / TOTAL BILIRUBIN / TOTAL PROTEIN / URIC ACID: tissue Plasma
[1] = 0 mg/kg, 72 h, dose level Control, time 3 day
[2] = 0 mg/kg, 120 h, dose level Control, time 5 day
[3] = 5 mg/kg, 72 h, dose level High, time 3 day

In the case of `CCc1c2c(nc3ccc(OC(=O)N4CCC(N5CCCCC5)CC4)cc13)-c1cc3c(c(=O)n1C2)COC(=O)[C@]3(O)CC` [IRINOTECAN], the “ABSOLUTE BASOPHIL” value [1] is reported as 0 CELLS/uL, the “ABSOLUTE EOSINOPHIL” value [1] is reported as 23.17 CELLS/uL and the “ABSOLUTE LYMPHOCYTE” value [1] is reported as 12448.83 CELLS/uL. The “ABSOLUTE MONOCYTE” value [1] was 259.5 CELLS/uL, the “ABSOLUTE SEGMENTED NEUTROPHIL” value [1] was 1635.17 CELLS/uL and the BASOPHIL [1] was 0%. For the same compound, the EOSINOPHIL [1] was 0.17%, the “ERYTHROCYTE COUNT” value [1] was 5.35 x10E6/uL and the HEMATOCRIT [1] was 34.85%. For the same compound, the HEMOGLOBIN [1] was 13.72 G/DL, the LYMPHOCYTE [1] was 86.5% and the “MEAN CORPUSCULAR HEMOGLOBIN” value [1] was 25.67 pg. The “MEAN CORPUSCULAR HEMOGLOBIN CONCENTRATION” value [1] was 39.38 G/DL, the MONOCYTE [1] was 1.83% and the NEUTROPHIL [1] was 11.5%. The “NUCLEATED RED BLOOD CELLS” value [1] was 0 /100WBC, the “PLATELET COUNT” value [1] was 1248.67 x10E3/uL and the “ALANINE AMINOTRANSFERASE” value [1] was 56.5 u/L. The ALBUMIN [1] was 4.27 G/DL, the “ALKALINE PHOSPHATASE” value [1] was 334 u/L and the “ASPARTATE AMINOTRANSFERASE” value [1] was 85.5 u/L. For the same compound, the “BLOOD UREA NITROGEN” value [1] was 16.33 mg/dL, the “CARBON DIOXIDE” value [1] was 26.5 mmol/L and the CHLORIDE [1] was 100.17 MEQ/L. For the same compound, the CHOLESTEROL [1] was 70.33 mg/dL, the “CREATINE PHOSPHOKINASE” value [1] was 339.5 u/L and the CREATININE [1] was 0.18 mg/dL. It also gave a GLUCOSE [1] of 155.17 mg/dL, an LIPASE [1] of 9.5 u/L and a PHOSPHORUS [1] of 13.55 mg/dL. For the same compound, the POTASSIUM [1] was 6.68 MEQ/L, the SODIUM [1] was 143.87 MEQ/L and the “TOTAL BILIRUBIN” value [1] was 0.2 mg/dL. The “TOTAL PROTEIN” value [1] was 5.98 G/DL, the “URIC ACID” value [1] was 1.53 mg/dL and the “ABSOLUTE BASOPHIL” value [2] was 0 CELLS/uL. For the same compound, the “ABSOLUTE EOSINOPHIL” value [2] was 16.17 CELLS/uL, the “ABSOLUTE LYMPHOCYTE” value [2] was 10653.67 CELLS/uL and the “ABSOLUTE MONOCYTE” value [2] was 17.17 CELLS/uL. For the same compound, the “ABSOLUTE SEGMENTED NEUTROPHIL” value [2] was 746.33 CELLS/uL, the BASOPHIL [2] was 0% and the EOSINOPHIL [2] was 0.17%. For the same compound, the “ERYTHROCYTE COUNT” value [2] was 5.88 x10E6/uL, the HEMATOCRIT [2] was 36.68% and the HEMOGLOBIN [2] was 14.6 G/DL. For the same compound, the LYMPHOCYTE [2] was 91.83%, the “MEAN CORPUSCULAR HEMOGLOBIN” value [2] was 24.85 pg and the “MEAN CORPUSCULAR HEMOGLOBIN CONCENTRATION” value [2] was 39.8 G/DL. For the same compound, the MONOCYTE [2] was 0.17%, the NEUTROPHIL [2] was 7.83% and the “NUCLEATED RED BLOOD CELLS” value [2] was 0 /100WBC. The “PLATELET COUNT” value [2] was 1219.5 x10E3/uL, the “ALANINE AMINOTRANSFERASE” value [2] was 45.5 u/L and the ALBUMIN [2] was 4.23 G/DL. For the same compound, the “ALKALINE PHOSPHATASE” value [2] was 330.17 u/L, the “ASPARTATE AMINOTRANSFERASE” value [2] was 93.33 u/L and the “BLOOD UREA NITROGEN” value [2] was 18 mg/dL. For the same compound, the “CARBON DIOXIDE” value [2] was 25.5 mmol/L, the CHLORIDE [2] was 96.33 MEQ/L and the CHOLESTEROL [2] was 73.5 mg/dL. The “CREATINE PHOSPHOKINASE” value [2] was 434 u/L, the CREATININE [2] was 0.2 mg/dL and the GLUCOSE [2] was 148.83 mg/dL. It also gave an LIPASE [2] of 10 u/L, a PHOSPHORUS [2] of 12.63 mg/dL and a POTASSIUM [2] of 6.66 MEQ/L. For the same compound, the SODIUM [2] was 139.78 MEQ/L, the “TOTAL BILIRUBIN” value [2] was 0.15 mg/dL and the “TOTAL PROTEIN” value [2] was 6.1 G/DL. The “URIC ACID” value [2] was 2.02 mg/dL, the “ABSOLUTE BASOPHIL” value [3] was 0 CELLS/uL and the “ABSOLUTE EOSINOPHIL” value [3] was 80.67 CELLS/uL. The “ABSOLUTE LYMPHOCYTE” value [3] was 9024 CELLS/uL, the “ABSOLUTE MONOCYTE” value [3] was 170 CELLS/uL and the “ABSOLUTE SEGMENTED NEUTROPHIL” value [3] was 658.67 CELLS/uL. For the same compound, the BASOPHIL [3] was 0%, the EOSINOPHIL [3] was 0.67% and the “ERYTHROCYTE COUNT” value [3] was 5.4 x10E6/uL. For the same compound, the HEMATOCRIT [3] was 34.93%, the HEMOGLOBIN [3] was 13.9 G/DL and the LYMPHOCYTE [3] was 90.67%. For the same compound, the “MEAN CORPUSCULAR HEMOGLOBIN” value [3] was 25.73 pg, the “MEAN CORPUSCULAR HEMOGLOBIN CONCENTRATION” value [3] was 39.77 G/DL and the MONOCYTE [3] was 1.67%. For the same compound, the NEUTROPHIL [3] was 7%, the “NUCLEATED RED BLOOD CELLS” value [3] was 0 /100WBC and the “PLATELET COUNT” value [3] was 1386.67 x10E3/uL. The “ALANINE AMINOTRANSFERASE” value [3] was 49 u/L, the ALBUMIN [3] was 4.27 G/DL and the “ALKALINE PHOSPHATASE” value [3] was 402.67 u/L. For the same compound, the “ASPARTATE AMINOTRANSFERASE” value [3] was 93 u/L, the “BLOOD UREA NITROGEN” value [3] was 14.67 mg/dL and the “CARBON DIOXIDE” value [3] was 26.67 mmol/L. The CHLORIDE [3] was 102.67 MEQ/L, the CHOLESTEROL [3] was 65 mg/dL and the “CREATINE PHOSPHOKINASE” value [3] was 421.33 u/L. It also gave a CREATININE [3] of 0.18 mg/dL, a GLUCOSE [3] of 152.67 mg/dL and an LIPASE [3] of 10 u/L. The PHOSPHORUS [3] was 14.3 mg/dL, the POTASSIUM [3] was 6.6 MEQ/L and the SODIUM [3] was 145.83 MEQ/L. For the same compound, the “TOTAL BILIRUBIN” value [3] was 0.17 mg/dL and the “TOTAL PROTEIN” value [3] was 5.8 G/DL.
